# Data from patent publication US6069240A, “Cloning by complementation and related processes” (priority 1998, dated 2000).
# pEC50, pIC50: −log10 of the molar value. Entries after “also recorded” stand apart in the source; their conditions may differ. Read-outs that look alike come from different tables or passages of the source.
# Experiments:
# [1] = tested on: human dunce-like PDEs (three human clones); assay: Inhibition and kinetics of the human dunce-like PDEs; assay type: biochemical; settings: for IC50s fold higher than for their specific PDE classes: compared with literature values for the inhibitors' own PDE classes; for pIC50: range over the human clones, read-out: IC50s for the human clones
# [2] = tested on: dnc (plasmid pADDROSF, cDNA truncated at 5' end); assay: Hydrolysis of 3H cAMP by yeast extracts (Dunce-like PDE clones); assay type: biochemical, Drosophila; settings: 1 μM 3H cAMP, SD in parentheses
# [3] = tested on: DPDE4 (plasmid pADH72, cDNA truncated at 5' end); settings: 1 μM 3H cAMP, SD in parentheses
# [4] = biological target: T1, dnc (plasmid pADDROSC, full-length) (Drosophila melanogaster, UniProt P12252); assay: biochemical
# T1 sequence (P12252 1-701 isoform P12252-3): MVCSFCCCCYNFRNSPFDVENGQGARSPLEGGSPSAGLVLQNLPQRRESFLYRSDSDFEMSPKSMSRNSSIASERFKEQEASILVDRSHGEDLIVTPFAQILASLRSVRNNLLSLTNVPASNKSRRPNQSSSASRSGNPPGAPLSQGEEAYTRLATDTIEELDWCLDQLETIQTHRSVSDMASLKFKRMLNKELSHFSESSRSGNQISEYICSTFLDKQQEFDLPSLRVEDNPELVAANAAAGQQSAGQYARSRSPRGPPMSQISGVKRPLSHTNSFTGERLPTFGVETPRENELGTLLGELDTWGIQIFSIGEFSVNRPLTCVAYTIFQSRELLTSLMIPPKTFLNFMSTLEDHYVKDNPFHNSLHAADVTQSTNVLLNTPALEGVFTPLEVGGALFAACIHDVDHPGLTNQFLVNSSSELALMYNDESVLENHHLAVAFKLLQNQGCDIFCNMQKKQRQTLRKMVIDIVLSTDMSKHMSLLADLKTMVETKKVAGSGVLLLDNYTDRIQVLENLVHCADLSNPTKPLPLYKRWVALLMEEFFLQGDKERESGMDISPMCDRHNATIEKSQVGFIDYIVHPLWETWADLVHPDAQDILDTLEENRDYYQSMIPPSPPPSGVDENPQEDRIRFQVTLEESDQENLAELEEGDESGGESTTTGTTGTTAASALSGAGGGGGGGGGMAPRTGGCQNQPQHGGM
# [5] = tested on: DPDE3 (plasmid pADH43, cDNA truncated at 5' end); settings: 1 μM 3H cAMP, SD in parentheses
# [6] = tested on: DPDE2 (plasmid pADH46R, cDNA truncated at 5' end); settings: 1 μM 3H cAMP, SD in parentheses
# [7] = biological target: pL22 Met (pTM22-like) human cyclic AMP phosphodiesterase (Homo sapiens, UniProt Q13946); assay: Phosphodiesterase activity of 10DAB yeast extract expressing human cDNA (kinetics, inhibitor sensitivity)
# Sequence of pL22 Met (pTM22-like) human cyclic AMP phosphodiesterase (Q13946 with tags, fused parts or gaps): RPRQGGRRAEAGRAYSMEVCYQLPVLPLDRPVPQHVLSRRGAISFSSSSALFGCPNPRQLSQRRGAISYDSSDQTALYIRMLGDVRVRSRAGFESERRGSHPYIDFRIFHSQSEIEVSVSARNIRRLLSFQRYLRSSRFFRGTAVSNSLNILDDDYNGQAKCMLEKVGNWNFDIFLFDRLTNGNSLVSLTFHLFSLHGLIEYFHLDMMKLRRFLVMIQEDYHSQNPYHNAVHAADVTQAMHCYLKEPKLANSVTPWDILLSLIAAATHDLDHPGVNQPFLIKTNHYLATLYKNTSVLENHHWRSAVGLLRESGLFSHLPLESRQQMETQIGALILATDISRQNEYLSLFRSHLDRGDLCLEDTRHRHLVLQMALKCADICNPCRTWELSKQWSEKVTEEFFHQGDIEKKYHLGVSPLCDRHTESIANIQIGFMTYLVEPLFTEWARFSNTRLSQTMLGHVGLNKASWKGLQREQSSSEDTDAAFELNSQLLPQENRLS
# [8] = tested on: yeast strain 10DAB transformed with pAD72 (human family IV phosphodiesterase); assay: Whole cell screen: heat treatment viability of transformed yeast; settings: 2 h at 30° C. then 50° C. for 30 min; for effect on viable cells of the culture after heat treatment (in words): concentrations up to 100 μM
# [9] = biological target: pJC44x human cyclic AMP phosphodiesterase; assay: Phosphodiesterase activity of 10DAB yeast extract expressing human cDNA (kinetics, inhibitor sensitivity); settings: read-out: EC50 (inhibitor concentration at 50% enzyme velocity); 1.0 μM cAMP
# DPDE4 (plasmid pADH72C) [10] = biological target: T2, DPDE4 (plasmid pADH72C) (Homo sapiens, UniProt Q07343); assay: biochemical
# T2 sequence (Q07343 whole entry): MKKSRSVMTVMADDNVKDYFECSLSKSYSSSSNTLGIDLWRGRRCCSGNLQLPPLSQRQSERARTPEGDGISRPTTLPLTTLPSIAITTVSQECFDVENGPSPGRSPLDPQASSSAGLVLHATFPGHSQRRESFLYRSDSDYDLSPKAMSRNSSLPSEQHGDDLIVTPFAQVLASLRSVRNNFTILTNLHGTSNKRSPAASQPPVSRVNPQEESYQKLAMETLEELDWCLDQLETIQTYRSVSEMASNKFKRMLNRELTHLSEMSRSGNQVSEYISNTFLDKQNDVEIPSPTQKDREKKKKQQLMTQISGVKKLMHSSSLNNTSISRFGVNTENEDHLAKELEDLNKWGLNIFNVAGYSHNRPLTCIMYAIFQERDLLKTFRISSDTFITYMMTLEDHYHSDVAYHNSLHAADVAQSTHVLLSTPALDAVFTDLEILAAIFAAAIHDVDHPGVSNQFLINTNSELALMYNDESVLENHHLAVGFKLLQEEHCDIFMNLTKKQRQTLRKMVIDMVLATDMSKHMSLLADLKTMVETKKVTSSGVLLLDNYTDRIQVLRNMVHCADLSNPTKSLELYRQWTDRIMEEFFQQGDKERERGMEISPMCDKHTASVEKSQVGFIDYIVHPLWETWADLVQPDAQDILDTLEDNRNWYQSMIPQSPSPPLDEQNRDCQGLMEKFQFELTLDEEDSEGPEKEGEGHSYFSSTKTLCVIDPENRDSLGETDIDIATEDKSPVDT
# [11] = biological target: T3, pRATDPD gene product (rat DPD cAMP phosphodiesterase) (Rattus norvegicus, UniProt P14646); settings: cGMP 100 fold over substrate concentration (5 μM cAMP, cGMP up to 500 μM)
# T3 sequence (P14646 220-736): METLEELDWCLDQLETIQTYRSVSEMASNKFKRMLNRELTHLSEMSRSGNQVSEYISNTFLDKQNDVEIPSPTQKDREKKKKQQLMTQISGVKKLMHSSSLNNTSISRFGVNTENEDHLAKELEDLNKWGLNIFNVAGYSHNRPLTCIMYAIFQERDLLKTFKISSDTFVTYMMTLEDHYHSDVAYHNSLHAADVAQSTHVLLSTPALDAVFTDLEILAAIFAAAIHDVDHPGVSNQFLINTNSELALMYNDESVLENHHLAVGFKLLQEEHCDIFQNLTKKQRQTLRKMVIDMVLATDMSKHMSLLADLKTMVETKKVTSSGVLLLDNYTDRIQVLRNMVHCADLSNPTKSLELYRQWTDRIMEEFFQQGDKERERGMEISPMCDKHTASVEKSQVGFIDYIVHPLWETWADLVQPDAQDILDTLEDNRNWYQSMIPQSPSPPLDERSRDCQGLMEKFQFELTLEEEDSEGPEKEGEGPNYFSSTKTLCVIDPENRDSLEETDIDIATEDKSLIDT
# [12] = tested on: Drosophila dnc encoded PDEs; assay: Inhibition and kinetics of dnc encoded PDEs; assay type: biochemical; settings: dnc gene product
# yeast PDE2 = yeast PDE2 (Saccharomyces cerevisiae, UniProt P06776); assay: Inhibition of phosphodiesterases by chemicals, cell free extracts of 10DAB yeast
# Sequence of yeast PDE2 (P06776 whole entry): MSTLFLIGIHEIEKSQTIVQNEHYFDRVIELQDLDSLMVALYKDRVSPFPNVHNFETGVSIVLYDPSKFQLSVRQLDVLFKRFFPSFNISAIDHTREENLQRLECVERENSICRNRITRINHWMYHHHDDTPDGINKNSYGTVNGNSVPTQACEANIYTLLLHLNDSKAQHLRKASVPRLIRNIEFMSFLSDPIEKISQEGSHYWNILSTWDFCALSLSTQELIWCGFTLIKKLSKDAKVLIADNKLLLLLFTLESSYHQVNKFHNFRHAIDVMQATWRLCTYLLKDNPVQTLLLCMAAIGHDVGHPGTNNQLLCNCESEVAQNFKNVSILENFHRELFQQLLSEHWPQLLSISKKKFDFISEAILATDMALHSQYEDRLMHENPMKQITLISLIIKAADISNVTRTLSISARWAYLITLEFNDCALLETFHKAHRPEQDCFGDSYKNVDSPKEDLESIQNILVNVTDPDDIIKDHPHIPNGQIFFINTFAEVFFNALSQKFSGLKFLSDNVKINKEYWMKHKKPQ
# [13] = biological target: T4, rat DPD phosphodiesterase (Rattus norvegicus, UniProt P14646); assay: as above; assay type: biochemical
# T4 construct: A large open reading frame of 562 codons was found; The first ATG appears at codon 46; made in house; host or cells: S. cerevisiae 10DAB (pde1-, pde2-), crude extract, vector pADNS
# T4 sequence (P14646 220-736): T3 sequence (P14646 220-736)
# DPDE4 (plasmid pADH72C) [14] = biological target: T2, DPDE4 (plasmid pADH72C); settings: 1 μM 3H cAMP, SD in parentheses
# [15] = tested on: yeast containing RAS2^va119 expressing the rat DPD gene; assay: Heat shock phenotype reversal screen; assay type: cell-based; settings: resistant cells incubated in agent
# From the text: The second type of pharmacological screen is applicable even when the mammalian gene encodes a protein of undetermined function, and, thus, cannot be assayed by a biochemical activity. In this method, agents to be tested are applied or introduced directly to the genetically altered microbial host expressing the mammalian protein. Agents capable of inhibiting the mammalian gene or gene product are identified by their ability to reverse the phenotype originally corrected by expression of the mammalian protein in the altered host.
# This procedure has been used for mammalian cDNAs encoding cyclic nucleotide phosphodiesterases and a yeast containing RAS2^va119 as the host strain. When the rat DPD gene is introduced into the heat shock sensitive host and expressed, the host strain becomes heat shock resistant. […] This same approach can be applied to assess other genes.
# [16] = tested on: 10DAB cells expressing the cDNA of pRATDPD; assay: Heat shock sensitivity of yeast expressing rat DPD; assay type: cell-based, S. cerevisiae; settings: 100 μM for 40 minutes, then 50° C. for 30 minutes
# Experimental: 10DAB cells, which are phosphodiesterase deficient, are sensitive to heat shock. As already discussed, when these cells acquire the capacity to express the cDNA of pRATDPD, they become resistant to heat shock. 10DAB cells expressing the cDNA of pRATDPD were maintained in rich medium (YPD) for three days at stationary phase. […] Control cultures were not treated with any inhibitor. These cultures were then heat shocked in glass tubes at 50° C. […] for 30 minutes. One microliter of each culture was plated.
# [17] = tested on: cAMP phosphodiesterases encoded by cDNAs of pTM3, pTM72, pJC44x and pRATDPD; assay: Biochemical analysis of cell lysates
Structure (SMILES),IC50s fold higher than for their specific PDE classes [1],pIC50 [2],pIC50 [3],pIC50 ([4]; read-out: IC50),pIC50 [5],pIC50 [6],pEC50 [7],pEC50 [9],pIC50 [1],pIC50 [12],further results
Cc1[nH]c(=O)c(C#N)cc1-c1ccncc1 [Milrinone],–,< 3.00,–,< 3.00,4.80,4.23,4.52,4.52,–,–,effect on viable cells of the culture after heat treatment (in words) [8]: no observable effect
Nc1nc2c(ncn2[C@@H]2O[C@@H]3COP(=O)(O)O[C@H]3[C@H]2O)c(=O)[nH]1 [cGMP],–,< 3.00,< 3.00,< 3.00,< 3.00,< 3.00,< 3.52,< 3.52,–,–,pIC50 (DPDE4 (plasmid pADH72C) [10]): < 3.00; inhibition of cAMP phosphodiesterase activity by cGMP [11]: did not inhibit
CC(C)Cn1c(=O)n(C)c(=O)c2[nH]cnc21 [IBMX],–,4.96,4.82,4.92,5.00,5.03,–,–,–,–,inhibition of the human dunce-like PDEs (in words) ([1]; no detectable difference in IC50 between clones): inhibited; inhibition at 250 µM (yeast PDE2): 0%; inhibition at 250 µM [13]: 87%; pIC50 (DPDE4 (plasmid pADH72C) [10]): 4.96
CCCCOc1cc(CC2CNC(=O)N2)ccc1OC (centres unmarked) [RO 20-1724],–,–,–,–,–,–,< 3.52,5.52,5.00 to 6.00,3.00,inhibition at 100 µM (yeast PDE2): 3%; inhibition at 0.1 µM [13]: 35%; inhibition at 1 µM [13]: 52%; inhibition at 10 µM [13]: 79%; inhibition at 100 µM [13]: 92%; inhibition of rat DPD enzymatic activity (in words) ([13]; listed as R020 1724): readily inhibited; also recorded: most effective inhibitors
Cn1c(=O)c2[nH]cnc2n(C)c1=O [Theophylline],–,–,–,–,–,–,–,3.52,–,–,–
COCc1nc2c([nH]1)c(=O)n(C)c(=O)n2CC(C)C [8-Methoxy IBMX],10 to 1000 fold,3.92,3.66,–,3.80,3.66,–,–,–,–,"pIC50 (DPDE4 (plasmid pADH72C) [14]): 3.72; pIC50 ([4]; pADDR, 1 μM 3H cAMP, SD in parentheses, read-out: IC50): 3.77"
COc1ccc(C2CNC(=O)C2)cc1OC1CCCC1 (centres unmarked) [Rolipram],–,< 3.00,[…],–,6.74,6.30,< 3.52,[…],6.30 to 6.70,3.00,"heat shock phenotype (in words) [15]: become heat shock sensitive again; sensitivity to heat shock (in words) [16]: much more sensitive to heat shock; inhibition of rat DPD enzymatic activity (in words) [13]: readily inhibited; also recorded: most effective inhibitors; sensitivity of the cAMP phosphodiesterases to the agent (in words) [17]: sensitive; pIC50 [4]: < 3.13; cells remaining viable out of approximately 150,000 cells ([8]; 100 μM): less than 10 cells; effect on viable cells of the culture after heat treatment (in words) [8]: reduced the number of viable cells"

# The next lines start with results.
IC50s fold higher than for their specific PDE classes [1],pIC50 [2],pIC50 [3],pIC50 ([4]; read-out: IC50),pIC50 [5],pIC50 [6],Structure (SMILES),pEC50 [7],pEC50 [9],pIC50 [1],pIC50 [12],further results
10 to 1000 fold,< 3.00,4.26,< 3.00,4.05,3.85,CN(C(=O)CCCOc1ccc2[nH]c(=O)ccc2c1)C1CCCCC1 [Cilostamide],–,–,–,–,–
–,5.82,6.70,5.52,7.00,6.66,CCCCn1c(=O)c2c(ncn2CC(C)=O)n(CCCC)c1=O [Denbufylline],–,–,5.00 to 6.00,5.52 to 6.00,–
10 to 1000 fold,3.89,4.05,4.24,4.06,3.92,CCCOc1ccccc1-c1nc2nn[nH]c2c(=O)[nH]1 [Zaprinast],–,–,–,–,–
